This is an account of results in PubChem BioAssay (NCI).

Several values for one entry are separate records, joined by “and”; a condition that tells them apart may be missing. Identical values can stand only once.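 Following 48 hours of exposure in 96-well plates, responses at five concentrations were used to interpolate endpoints linearly. At the GI50, growth is halved. Definition used: TGI = concentration required for complete inhibition of growth.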 Bounds are passed on as bounds.

What all share (assay): inhibition of tumour cell growth, NCI panel, 48 h
The subject of experiment [1] is SR leukemia.
Experiment [2] relates to SN12C renal.
Experiment [3] deals with K-562 leukemia.
The test system of experiment [4] is SNB-19 CNS.
Experiment [5] relates to NCI-H522 lung.
Experiment [6] relates to HL-60(TB) leukemia.
Experiment [7] has as its system HCC-2998 colon.
The test system of experiment [8] is MALME-3M melanoma.
The test system of experiment [9] is HCT-15 colon.
Experiment [10] concerns U251 CNS.

For the compound `Cc1nn(-c2nc3ccccc3[nH]2)c2c1C(c1ccc3c(c1)OCO3)CC(=O)N2` (centres undefined), the GI50 in [1] was 2.82 µM; in [2], 2.77 µM; in experiment [3] it was 3.58 µM; in [4], 4.45 µM; in experiment [5], 2.22 µM; in experiment [6] it was 2.84 µM. Moreover, the GI50 in experiment [7] was 3.7 µM; in experiment [8] it was 2.12 µM; in experiment [9], 3.05 µM; in experiment [10], 2.14 µM. Also, the TGI in experiment [1] was more than 24.9 µM; in experiment [2] it was 9.77 µM; in experiment [3], more than 100 µM; in experiment [4], more than 100 µM; in experiment [5], 5.41 µM; in [6], 7.74 µM. Also, the TGI in [7] is more than 24.3 µM; in experiment [8], 6.04 µM; in experiment [9], more than 100 µM; in experiment [10], 4.79 µM.
Consider `CC(C)(c1ccc(OC#N)cc1)c1ccc(OC#N)cc1`, for which the TGI is 50.5 µM in experiment [1]; more than 100 µM in experiment [2]; more than 100 µM in experiment [3]; more than 100 µM in [4]; more than 31.6 µM in experiment [5]; more than 77.7 µM in experiment [6]. Further, the TGI is more than 100 µM in experiment [7], more than 100 µM in experiment [8], 39.7 µM in experiment [9] and more than 100 µM in experiment [10].
As for `Clc1nc(Cl)c(Cc2ccccc2)c(Cl)n1`, the TGI was more than 100 µM in experiment [1]; 32 µM in experiment [2]; more than 100 µM in experiment [3]; 33.3 µM in experiment [4]; 3.04 µM in experiment [5]; more than 100 µM in experiment [6]. In addition, the TGI in [7] was 66.1 µM; in experiment [8], 63.2 µM; in experiment [9] it was 85 µM; in [10], 33.8 µM.
`COC(=O)[C@@H](C)C[C@H](Cc1ccccc1)NC(=O)c1csc([C@@H](C[C@H](C(C)C)N(C)C(=O)C2(NC(=O)[C@H]3CCCCN3C)CC2)OC(C)=O)n1`: the GI50 is 0.000486 µM and 0.00333 µM in [1]; 0.0156 µM and 0.00333 µM in experiment [2]; 0.00244 µM and 0.00333 µM in experiment [3]; 0.00824 µM and 0.00333 µM in [4]; 0.000537 µM in [5]; 0.000657 µM and < 0.00333 µM in [6]. For the same compound, the GI50 in experiment [7] is 0.00849 µM and 0.00333 µM; in [8], more than 33.3 µM; in experiment [9] it was 0.424 µM; in experiment [10], 0.00913 µM and 0.00333 µM. In addition, the TGI was more than 33.3 µM in experiment [1]; more than 33.3 µM in [2]; more than 33.3 µM in [3]; more than 33.3 µM in experiment [4]; 0.00491 µM in experiment [5]; 0.00685 µM and < 0.00333 µM in experiment [6]. For the same compound, the TGI in experiment [7], in experiment [8] and in experiment [10] was more than 33.3 µM throughout.
For `N#Cc1nc2cc(F)c(F)cc2nc1-c1ccc(Cl)cc1`, the GI50 in experiment [1] is 1.7 µM; in experiment [2] it was 6.83 µM; in [3], 2.99 µM; in experiment [4], 14.5 µM; in [5], 13.5 µM; in [6], 3.43 µM. In addition, the GI50 was 3.93 µM in [7], 15.8 µM in experiment [8], 1.44 µM in experiment [9] and 10.4 µM in experiment [10]. Besides, the TGI in experiment [1] was 4.35 µM; in [2], 34.8 µM; in experiment [3] it was more than 27.8 µM; in [4], more than 85.9 µM; in [5] it was more than 48.2 µM; in experiment [6], more than 28.2 µM. In addition, the TGI is 17.6 µM in experiment [7], 39.1 µM in experiment [8], 2.76 µM in experiment [9] and 25 µM in experiment [10].
Take `N#CC(C#N)=C1SCC(=O)CS1`: the TGI in experiment [1], in experiment [2], in experiment [3], in experiment [4], in experiment [5] and in [6] was more than 100 µM each time. Moreover, the TGI in [7], in experiment [8], in [9] and in [10] was more than 100 µM throughout.
On to `S=C(Nc1ccccc1)N(Cc1ccccc1)c1ccccc1`, for which the TGI was more than 100 µM in [1]; more than 100 µM in [2]; more than 100 µM in experiment [3]; more than 100 µM in experiment [4]; 62.3 µM in experiment [5]; more than 100 µM in [6]. Also, the TGI in experiment [7] is more than 100 µM; in experiment [8], 37.2 µM; in experiment [9], more than 100 µM; in experiment [10], more than 100 µM.
Regarding `OC(CNc1ccnc2cc(Cl)ccc12)CNC1CCCCC1` (centres undefined), the GI50 in experiment [1] was 1.95 µM; in experiment [2], 12 µM; in experiment [3], 2.07 µM; in experiment [4], 22.4 µM; in experiment [5], 2.72 µM; in [6] it was 10.9 µM. Also, the GI50 in experiment [7] was 3.79 µM; in experiment [8] it was 1.89 µM; in [9], 3.78 µM; in experiment [10], 2.14 µM. The TGI was 5.13 µM in experiment [1]; 48.4 µM in experiment [2]; 5.17 µM in [3]; 75.5 µM in experiment [4]; 6.55 µM in experiment [5]; 28.7 µM in experiment [6]. For the same compound, the TGI in [7] amounted to 11 µM; in experiment [8], 3.8 µM; in [9] it was 17 µM; in experiment [10], 5.37 µM.
For the compound `NCCCCN(Cc1nc2ccccc2[nH]1)[C@H]1CCCc2cccnc21`, the GI50 in experiment [1] is 4.52 µM; in experiment [2], 14.9 µM; in experiment [3] it was 12.6 µM; in [4] it was 26.9 µM; in experiment [5] it was 19.8 µM; in experiment [6], 5.34 µM. Moreover, the GI50 in experiment [7] was 16.9 µM; in [8], 13.2 µM; in experiment [9], 24.3 µM; in experiment [10], 11.3 µM. The TGI in experiment [1] was 24.8 µM; in experiment [2], more than 100 µM; in experiment [3] it was 43.3 µM; in [4], more than 100 µM; in [5], more than 64.8 µM; in experiment [6], 26.7 µM. For the same compound, the TGI was 38.2 µM in experiment [7], 28.2 µM in experiment [8], more than 100 µM in experiment [9] and more than 67.8 µM in experiment [10].
